Results from patent US10183021B2, “sGC stimulators” (Ironwood Pharmaceuticals, Inc., priority 2013, dated 2019).

Biological target: soluble guanylate cyclase (sGC) (Homo sapiens (Human), UniProt Q02108+Q02153)
Assay: sGC-HEK-cGMP assay, new protocol with DETA-NONOate, LC/MS detection (Example 2C)
Format: cell-based
Details: read-out: Absolute EC50 (uM) - binned
Method: Human embryonic kidney cells (HEK293), endogenously expressing soluble guanylate cyclase (sGC), were used to evaluate the activity of test compounds. Compounds stimulating the sGC enzyme should cause an increase in the intracellular concentration of cGMP. HEK 293 cells were seeded in Dulbecco's Modification of Eagle's Medium supplemented with fetal bovine serum (10% final) and penicillin (100 U/mL)/streptomycin (100 μg/mL) in a 50 μL volume at a density of 1.5×10^4 cells/well in a poly-D-lysine coated 384 well flat bottom plate. Cells were incubated overnight at 37° C. in a humidified chamber with 5% CO2. Medium was aspirated and cells were washed with 1× Hank's Buffered Saline Salt Solution (50 μL). Cells were then incubated for 15 minutes at 37° C. with 50 μL of a 0.5 mM 3-isobutyl-1-methylxanthine (IBMX) solution. Test article and Diethylenetriamine NONOate (DETA-NONOate) solutions (x μM concentration for test article solution and 10 μM concentration for DETA-NONOate solution; wherein x is one of the following concentrations);
were then added to the assay mixture and the resulting mixture incubated at 37° C. for 20 minutes. After the 20 minute incubation, the assay mixture was aspirated and 10% acetic acid containing 150 ng/mL+3-cGMP (internal standard for LCMS) (50 μL) was added to the cells. The plate was incubated at 4° C. for 30 minutes in the acetic acid solution to stop the reaction and lyse the cells. The plates were then centrifuged at 1,000 g for 3 minutes at 4° C. and the supernatant transferred to a clean reaction plate for LCMS analysis.
cGMP concentrations were determined from each sample using the LCMS conditions below (Table 5) and calculated standard curve.
Data were normalized to a high control using the following equation: 100*(Sample−Low Control)/(High Control−Low Control), where the low control is the average of 16 samples treated with 1% DMSO, and the high control is the average of 16 samples treated with 30 μM of 1-329 Data were fit using a 4-parameter fit (log(agonist) vs. response—variable slope) using GraphPad Prism Software v.5. n=2 for all compounds. […] Compounds failing to elicit a minimum response of 50% are reported as >30 μM.

Sequence of soluble guanylate cyclase (sGC) (Q02153 whole entry): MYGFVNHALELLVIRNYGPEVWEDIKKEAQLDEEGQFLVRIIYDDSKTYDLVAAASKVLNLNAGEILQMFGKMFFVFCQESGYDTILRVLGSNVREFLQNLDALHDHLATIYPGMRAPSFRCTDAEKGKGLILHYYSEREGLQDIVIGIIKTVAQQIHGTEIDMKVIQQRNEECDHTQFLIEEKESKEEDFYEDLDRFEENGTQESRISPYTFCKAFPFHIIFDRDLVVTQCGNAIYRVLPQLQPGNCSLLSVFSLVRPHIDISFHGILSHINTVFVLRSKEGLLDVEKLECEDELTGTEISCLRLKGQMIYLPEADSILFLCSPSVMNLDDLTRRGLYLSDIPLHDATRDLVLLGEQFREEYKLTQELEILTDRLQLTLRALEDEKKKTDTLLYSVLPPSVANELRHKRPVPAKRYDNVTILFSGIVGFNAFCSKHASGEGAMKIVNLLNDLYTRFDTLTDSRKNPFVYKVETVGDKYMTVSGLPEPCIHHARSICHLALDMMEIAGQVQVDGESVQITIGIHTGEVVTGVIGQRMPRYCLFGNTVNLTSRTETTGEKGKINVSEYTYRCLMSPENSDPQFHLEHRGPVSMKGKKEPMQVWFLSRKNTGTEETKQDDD
Sequence of soluble guanylate cyclase (sGC) (Q02108 whole entry): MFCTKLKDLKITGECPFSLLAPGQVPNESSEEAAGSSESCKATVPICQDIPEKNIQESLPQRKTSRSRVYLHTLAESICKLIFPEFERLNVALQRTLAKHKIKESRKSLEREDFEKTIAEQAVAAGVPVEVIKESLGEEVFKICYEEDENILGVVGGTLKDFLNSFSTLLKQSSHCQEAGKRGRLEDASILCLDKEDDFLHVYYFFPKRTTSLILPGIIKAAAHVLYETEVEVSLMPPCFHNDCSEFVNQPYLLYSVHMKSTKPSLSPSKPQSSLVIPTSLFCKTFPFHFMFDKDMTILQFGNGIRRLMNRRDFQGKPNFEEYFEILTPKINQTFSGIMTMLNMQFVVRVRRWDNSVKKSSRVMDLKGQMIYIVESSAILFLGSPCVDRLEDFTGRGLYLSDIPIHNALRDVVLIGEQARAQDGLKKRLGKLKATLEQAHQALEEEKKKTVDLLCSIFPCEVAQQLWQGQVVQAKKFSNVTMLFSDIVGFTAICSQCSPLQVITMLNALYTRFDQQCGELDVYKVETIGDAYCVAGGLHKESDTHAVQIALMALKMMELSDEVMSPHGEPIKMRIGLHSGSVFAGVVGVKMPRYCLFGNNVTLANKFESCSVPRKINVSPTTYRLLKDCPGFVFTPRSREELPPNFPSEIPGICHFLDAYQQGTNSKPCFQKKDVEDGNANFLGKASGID

| Compound | EC50 |
| --- | --- |
| CN(C[C@@H](O)CO)c1nc(-c2cc(-c3ccon3)n(Cc3ccccc3F)n2)ncc1F [Compound I-321] | < 0.1 µM |
| OC[C@@H](O)CN(CC1CC1)c1nc(-c2cc(-c3ccon3)n(Cc3ccccc3F)n2)ncc1F [Compound I-322] | < 0.1 µM |
| CC(C)N(C[C@H](O)CO)c1nc(-c2cc(-c3ccon3)n(Cc3ccccc3F)n2)ncc1F [Compound I-323] | 0.101 to 1 µM |
| CC(C)(O)CNc1nc(-c2cc(-c3ccon3)n(Cc3ccccc3F)n2)ncc1F [Compound I-325] | < 0.1 µM |
| O=C(Nc1ccnc(-c2cc(-c3ccon3)n(Cc3ccccc3F)n2)n1)[C@H](O)C(F)(F)F [Compound I-326] | 0.101 to 1 µM |
| CCOc1c(Nc2ccnc(-c3cc(-c4ccon4)n(Cc4ccccc4F)n3)n2)c(=O)c1=O [Compound I-327] | > 1 µM |
| O=C(Nc1ccnc(-c2cc(-c3ccon3)n(Cc3ccccc3F)n2)n1)C1(C(F)(F)F)CC1 [Compound I-328] | > 1 µM |
| C[C@H]1CCCN(c2nc(-c3cc(-c4ccon4)n(Cc4ccccc4F)n3)ncc2F)[C@H]1C(=O)NS(=O)(=O)C1CC1 [Compound I-331] | 0.101 to 1 µM |
| C[C@H]1CCCN(c2nc(-c3cc(-c4ccon4)n(Cc4ccccc4F)n3)ncc2F)[C@@H]1C(=O)NS(=O)(=O)C1CC1 [Compound I-332] | < 0.1 µM |
| C[C@H]1CCCN(c2ccnc(-c3cc(-c4ccon4)n(Cc4ccccc4F)n3)n2)[C@H]1C(=O)O [Compound I-333] | < 0.1 µM |
| OCC(CO)(CO)Nc1nc(-c2cc(-c3ccon3)n(Cc3ccccc3F)n2)ncc1F [Compound I-334] | 0.101 to 1 µM |
| NC(=O)[C@H](CO)Nc1nc(-c2cc(-c3ccon3)n(Cc3ccccc3F)n2)ncc1F [Compound I-335] | 0.101 to 1 µM |
| O=C(NC(CO)CO)[C@@H](CO)Nc1nc(-c2cc(-c3ccon3)n(Cc3ccccc3F)n2)ncc1F [Compound I-336] | > 1 µM |
| O=C(O)c1cccc2c1CN(c1nc(-c3cc(-c4ccon4)n(Cc4ccccc4F)n3)ncc1F)CC2 [Compound I-339] | < 0.1 µM |
| CN(CC1(C(=O)O)CC1)c1nc(-c2cc(-c3nccs3)n(Cc3ccccc3F)n2)ncc1F [Compound I-343] | < 0.1 µM |
| CC(C)[C@H](CN(C)c1nc(-c2cc(-c3ccon3)n(Cc3ccccc3F)n2)ncc1F)NS(=O)(=O)C1CC1 [Compound I-344] | < 0.1 µM |
| CN(CC1(C(=O)O)CC1)c1nc(-c2cc(-c3cscn3)n(Cc3ccccc3F)n2)ncc1F [Compound I-345] | < 0.1 µM |
| Fc1ccccc1Cn1nc(-c2ncc(F)c(N3CCc4[nH]nc(C(F)(F)F)c4C3)n2)cc1-c1ccon1 [Compound I-346] | > 1 µM |
| O[C@@H]1[C@H](O)CN(c2nc(-c3cc(-c4ccon4)n(Cc4ccccc4F)n3)ncc2F)C[C@@H]1O [Compound I-347] | < 0.1 µM |
| NCC(O)CNc1nc(-c2cc(-c3ccon3)n(Cc3ccccc3F)n2)ncc1F (centres unmarked) [Compound I-348] | > 1 µM |
| CS(=O)(=O)NCC(O)CNc1nc(-c2cc(-c3ccon3)n(Cc3ccccc3F)n2)ncc1F (centres unmarked) [Compound I-349] | < 0.1 µM |

| Compound | EC50 |
| --- | --- |
| O[C@@H]1CN(c2nc(-c3cc(-c4ccon4)n(Cc4ccccc4F)n3)ncc2F)CC[C@@H]1O [Compound I-350] | < 0.1 µM |
| CC(C)(C)OC(=O)N1CC(O)(CNc2nc(-c3cc(-c4ccon4)n(Cc4ccccc4F)n3)ncc2F)C1 [Compound I-351] | < 0.1 µM |
| OCC(O)(CCl)CNc1nc(-c2cc(-c3ccon3)n(Cc3ccccc3F)n2)ncc1F (centres unmarked) [Compound I-352] | < 0.1 µM |
| OC1(CNc2nc(-c3cc(-c4ccon4)n(Cc4ccccc4F)n3)ncc2F)CNC1 [Compound I-353] | > 1 µM |
| O=S(=O)(NC1(CNc2nc(-c3cc(-c4ccon4)n(Cc4ccccc4F)n3)ncc2F)CC1)C(F)(F)F [Compound I-354] | < 0.1 µM |
| OCC(O)(CNc1nc(-c2cc(-c3ccon3)n(Cc3ccccc3F)n2)ncc1F)C(F)(F)F (centres unmarked) [Compound I-355] | < 0.1 µM |
| O=C1NCC[C@@H]1Nc1nc(-c2cc(-c3ccon3)n(Cc3ccccc3F)n2)ncc1F [Compound I-356] | 0.101 to 1 µM |
| OC(C1CN(c2nc(-c3cc(-c4ccon4)n(Cc4ccccc4F)n3)ncc2F)C1)(C(F)(F)F)C(F)(F)F [Compound I-357] | > 1 µM |
| O=C(O)C1(CNc2nc(-c3cc(-c4ccon4)n(Cc4ccccc4F)n3)ncc2F)CC1 [Compound I-358] | < 0.1 µM |
| O=C(O)C1(c2ccc(Nc3nc(-c4cc(-c5ccon5)n(Cc5ccccc5F)n4)ncc3F)cc2)CC1 [Compound I-360] | < 0.1 µM |
| CC(=O)c1cc(-c2ncc(F)c(NCC(O)(C(F)(F)F)C(F)(F)F)n2)nn1Cc1ccccc1F [Compound I-362] | 0.101 to 1 µM |
| O=S(=O)(O)C1CCN(c2nc(-c3cc(-c4ccon4)n(Cc4ccccc4F)n3)ncc2F)CC1 [Compound I-363] | > 1 µM |
| Oc1n[nH]c2c1CCN(c1nc(-c3cc(-c4ccon4)n(Cc4ccccc4F)n3)ncc1F)C2 [Compound I-370] | < 0.1 µM |
| CN(Cc1nc(C(=O)O)cs1)c1nc(-c2cc(-c3ccon3)n(Cc3ccccc3F)n2)ncc1F [Compound I-373] | 0.101 to 1 µM |
| O=C(O)c1cccc(CCNc2nc(-c3cc(-c4ccon4)n(Cc4ccccc4F)n3)ncc2F)c1 [Compound I-377] | < 0.1 µM |
| CCOC(=O)C1=C(O)CN(c2nc(-c3cc(-c4ccon4)n(Cc4ccccc4F)n3)ncc2F)CC1 [Compound I-378] | < 0.1 µM |
| O=C(O)[C@H]1CCC[C@@H](Nc2nc(-c3cc(-c4ccon4)n(Cc4ccccc4F)n3)ncc2F)C1 [Compound I-380] | < 0.1 µM |
| O=S(=O)(CCNc1nc(-c2cc(-c3ccon3)n(Cc3ccccc3F)n2)ncc1F)NCC(F)(F)F [Compound I-381] | < 0.1 µM |
| CNC(=O)C(C)(O)CN(C)c1nc(-c2cc(-c3ccon3)n(Cc3ccccc3F)n2)ncc1F (centres unmarked) [Compound I-382] | < 0.1 µM |
| CN(CC(C)(C)C(=O)O)c1nc(-c2cc(-c3ccon3)n(Cc3ccccc3F)n2)ncc1F [Compound I-383] | < 0.1 µM |
| CC(=O)NS(=O)(=O)CCNc1nc(-c2cc(-c3ccon3)n(Cc3ccccc3F)n2)ncc1F [Compound I-385] | 0.101 to 1 µM |

| Compound | EC50 |
| --- | --- |
| O=C(Nc1ccnc(-c2cc(-c3ccon3)n(Cc3ccccc3F)n2)n1)c1cc[nH]n1 [Compound I-386] | > 1 µM |
| O=C(NC1CN(c2nc(-c3cc(-c4ccon4)n(Cc4ccccc4F)n3)ncc2F)C1)C(F)(F)F [Compound I-387] | < 0.1 µM |
| CC(C)(C)OC(=O)NCCNc1nc(-c2cc(-c3ccon3)n(Cc3ccccc3F)n2)ncc1F [Compound I-390] | < 0.1 µM |
| NCCNc1nc(-c2cc(-c3ccon3)n(Cc3ccccc3F)n2)ncc1F [Compound I-391] | 0.101 to 1 µM |
| O=S(=O)(NCCNc1nc(-c2cc(-c3ccon3)n(Cc3ccccc3F)n2)ncc1F)C(F)(F)F [Compound I-392] | < 0.1 µM |
| CN(CC(C)(O)C(N)=O)c1nc(-c2cc(-c3ccon3)n(Cc3ccccc3F)n2)ncc1F (centres unmarked) [Compound I-393] | 0.101 to 1 µM |
| O=S(=O)(N1CC(Nc2nc(-c3cc(-c4ccon4)n(Cc4ccccc4F)n3)ncc2F)C1)C(F)(F)F [Compound I-394] | > 1 µM |
| O[C@@H]1Cc2ccccc2[C@@H]1Nc1nc(-c2cc(-c3ccon3)n(Cc3ccccc3F)n2)ncc1F [Compound I-395] | < 0.1 µM |
| OC1(C(F)(F)F)CN(c2nc(-c3cc(-c4ccon4)n(Cc4ccccc4F)n3)ncc2F)C1 [Compound I-396] | < 0.1 µM |
| OC1(CNc2nc(-c3cc(-c4ccon4)n(Cc4ccccc4F)n3)ncc2F)CCOCC1 [Compound I-397] | < 0.1 µM |
| O=C(O)C(CC(F)F)Nc1nc(-c2cc(-c3ccon3)n(Cc3ccccc3F)n2)ncc1F (centres unmarked) [Compound I-398] | > 1 µM |
| OCC(CC(F)F)Nc1nc(-c2cc(-c3ccon3)n(Cc3ccccc3F)n2)ncc1F (centres unmarked) [Compound I-399] | < 0.1 µM |
| COC(=O)[C@@H]1CCC(=O)N1c1nc(-c2cc(-c3ccon3)n(Cc3ccccc3F)n2)ncc1F [Compound I-401] | > 1 µM |
| O=c1c(O)c(Nc2ccnc(-c3cc(-c4ccon4)n(Cc4ccccc4F)n3)n2)c1=O [Compound I-402] | > 1 µM |
| O=C(O)C(Nc1nc(-c2cc(-c3ccon3)n(Cc3ccccc3F)n2)ncc1F)C(F)(F)F (centres unmarked) [Compound I-403] | 0.101 to 1 µM |
| OCC(Nc1nc(-c2cc(-c3ccon3)n(Cc3ccccc3F)n2)ncc1F)C(F)(F)F (centres unmarked) [Compound I-404] | 0.101 to 1 µM |
| CC1(C(=O)O)CCCN(c2nc(-c3cc(-c4ccon4)n(Cc4ccccc4F)n3)ncc2F)C1 (centres unmarked) [Compound I-406] | < 0.1 µM |
| OCCNc1nc(-c2cc(-c3ccon3)n(Cc3ccccc3F)n2)ncc1F [Compound I-407] | < 0.1 µM |
| OCCCNc1nc(-c2cc(-c3ccon3)n(Cc3ccccc3F)n2)ncc1F [Compound I-408] | < 0.1 µM |
| CCN(CC1(C(=O)O)CC1)c1nc(-c2cc(-c3ccon3)n(Cc3ccccc3F)n2)ncc1F [Compound I-409] | < 0.1 µM |
